We go through three molecules from ChEMBL document CHEMBL1127073, “(+)-Hemipalmitoylcarnitinium strongly inhibits carnitine palmitoyltransferase-I in intact mitochondria” (J Med Chem, 1993).

For data set [1], the target named is T1, Carnitine O-palmitoyltransferase 1, liver isoform (Rattus norvegicus, UniProt P32198).
T1 sequence (P32198 whole entry): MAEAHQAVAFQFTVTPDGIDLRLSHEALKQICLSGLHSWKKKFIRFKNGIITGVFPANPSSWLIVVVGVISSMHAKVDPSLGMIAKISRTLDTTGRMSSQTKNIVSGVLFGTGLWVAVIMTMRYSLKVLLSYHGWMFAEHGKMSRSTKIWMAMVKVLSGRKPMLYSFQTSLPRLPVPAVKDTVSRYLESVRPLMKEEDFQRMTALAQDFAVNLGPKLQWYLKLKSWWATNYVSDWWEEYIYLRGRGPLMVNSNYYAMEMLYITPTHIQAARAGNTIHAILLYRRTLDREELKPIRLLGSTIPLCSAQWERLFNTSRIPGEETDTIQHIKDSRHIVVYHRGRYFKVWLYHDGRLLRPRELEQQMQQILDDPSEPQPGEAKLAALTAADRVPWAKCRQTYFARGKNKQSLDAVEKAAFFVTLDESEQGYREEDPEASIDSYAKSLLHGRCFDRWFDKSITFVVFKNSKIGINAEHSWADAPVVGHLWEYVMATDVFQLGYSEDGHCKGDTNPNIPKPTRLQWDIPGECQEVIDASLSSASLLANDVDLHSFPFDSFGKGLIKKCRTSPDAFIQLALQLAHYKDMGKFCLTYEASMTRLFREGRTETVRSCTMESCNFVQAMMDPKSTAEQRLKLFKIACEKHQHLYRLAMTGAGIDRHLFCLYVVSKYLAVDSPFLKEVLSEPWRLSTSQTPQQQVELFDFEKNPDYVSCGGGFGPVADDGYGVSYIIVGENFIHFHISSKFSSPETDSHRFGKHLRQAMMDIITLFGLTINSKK
The data set is described as follows: (§1) Compound was evaluated for its ability to inhibit carnitine palmitoyltransferase I activity in intact mitochondria from rat liver.

Data set [2] addresses T2, Carnitine O-palmitoyltransferase 1, muscle isoform (Rattus norvegicus, UniProt Q63704).
T2 sequence (Q63704 whole entry): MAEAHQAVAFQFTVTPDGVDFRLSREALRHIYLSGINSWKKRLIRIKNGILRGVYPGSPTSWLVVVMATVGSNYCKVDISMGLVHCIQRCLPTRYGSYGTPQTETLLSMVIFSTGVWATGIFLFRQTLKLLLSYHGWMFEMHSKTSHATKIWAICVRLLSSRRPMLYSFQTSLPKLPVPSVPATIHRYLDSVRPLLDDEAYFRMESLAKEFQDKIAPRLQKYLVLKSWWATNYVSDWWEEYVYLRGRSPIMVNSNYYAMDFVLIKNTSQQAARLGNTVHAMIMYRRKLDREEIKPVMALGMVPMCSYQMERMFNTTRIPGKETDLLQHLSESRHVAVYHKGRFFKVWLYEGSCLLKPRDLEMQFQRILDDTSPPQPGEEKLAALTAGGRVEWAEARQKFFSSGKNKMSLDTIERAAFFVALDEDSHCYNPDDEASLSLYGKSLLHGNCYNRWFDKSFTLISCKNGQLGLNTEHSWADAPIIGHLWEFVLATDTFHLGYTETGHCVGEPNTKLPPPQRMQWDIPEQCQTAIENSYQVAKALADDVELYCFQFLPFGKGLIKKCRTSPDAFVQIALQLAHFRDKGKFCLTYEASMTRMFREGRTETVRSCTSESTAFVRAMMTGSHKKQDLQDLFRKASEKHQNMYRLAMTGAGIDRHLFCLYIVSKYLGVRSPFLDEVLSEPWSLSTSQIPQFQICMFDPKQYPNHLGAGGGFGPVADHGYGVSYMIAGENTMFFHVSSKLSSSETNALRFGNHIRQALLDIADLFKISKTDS
The data set is described as follows: (§2) Compound was evaluated for its ability to inhibit carnitine palmitoyltransferase I activity in intact mitochondria from rat heart.

Compound in data set [3]: CCCCCCCCCCCCCCC[C@@]1(O)C[N+](C)(C)C[C@@H](CC(=O)[O-])O1
Described as §1.

Compound in data set [4]: CCCCCCCCCCCCCCC[C@@]1(O)C[N+](C)(C)C[C@@H](CC(=O)[O-])O1
The data set is described as §2.

In the case of `CCCCCCCCCCCCCCC[C@@]1(O)C[N+](C)(C)C[C@@H](CC(=O)[O-])O1` [HEMIACYLCARNITINIUM], the inhibitory constant (Ki) came to 4.2 µM in data set [1] and 2.8 µM in data set [2].

B1: Carnitine O-palmitoyltransferase 1, liver isoform (Rattus norvegicus), P32198 (protein)
chain: MAEAHQAVAFQFTVTPDGIDLRLSHEALKQICLSGLHSWKKKFIRFKNGIITGVFPANPSSWLIVVVGVISSMHAKVDPSLGMIAKISRTLDTTGRMSSQTKNIVSGVLFGTGLWVAVIMTMRYSLKVLLSYHGWMFAEHGKMSRSTKIWMAMVKVLSGRKPMLYSFQTSLPRLPVPAVKDTVSRYLESVRPLMKEEDFQRMTALAQDFAVNLGPKLQWYLKLKSWWATNYVSDWWEEYIYLRGRGPLMVNSNYYAMEMLYITPTHIQAARAGNTIHAILLYRRTLDREELKPIRLLGSTIPLCSAQWERLFNTSRIPGEETDTIQHIKDSRHIVVYHRGRYFKVWLYHDGRLLRPRELEQQMQQILDDPSEPQPGEAKLAALTAADRVPWAKCRQTYFARGKNKQSLDAVEKAAFFVTLDESEQGYREEDPEASIDSYAKSLLHGRCFDRWFDKSITFVVFKNSKIGINAEHSWADAPVVGHLWEYVMATDVFQLGYSEDGHCKGDTNPNIPKPTRLQWDIPGECQEVIDASLSSASLLANDVDLHSFPFDSFGKGLIKKCRTSPDAFIQLALQLAHYKDMGKFCLTYEASMTRLFREGRTETVRSCTMESCNFVQAMMDPKSTAEQRLKLFKIACEKHQHLYRLAMTGAGIDRHLFCLYVVSKYLAVDSPFLKEVLSEPWRLSTSQTPQQQVELFDFEKNPDYVSCGGGFGPVADDGYGVSYIIVGENFIHFHISSKFSSPETDSHRFGKHLRQAMMDIITLFGLTINSKK
Regarding B1, the Km in data set [3] turned out to be 350 µM.

B2: Carnitine O-palmitoyltransferase 1, muscle isoform (Rattus norvegicus), Q63704 (protein)
chain: MAEAHQAVAFQFTVTPDGVDFRLSREALRHIYLSGINSWKKRLIRIKNGILRGVYPGSPTSWLVVVMATVGSNYCKVDISMGLVHCIQRCLPTRYGSYGTPQTETLLSMVIFSTGVWATGIFLFRQTLKLLLSYHGWMFEMHSKTSHATKIWAICVRLLSSRRPMLYSFQTSLPKLPVPSVPATIHRYLDSVRPLLDDEAYFRMESLAKEFQDKIAPRLQKYLVLKSWWATNYVSDWWEEYVYLRGRSPIMVNSNYYAMDFVLIKNTSQQAARLGNTVHAMIMYRRKLDREEIKPVMALGMVPMCSYQMERMFNTTRIPGKETDLLQHLSESRHVAVYHKGRFFKVWLYEGSCLLKPRDLEMQFQRILDDTSPPQPGEEKLAALTAGGRVEWAEARQKFFSSGKNKMSLDTIERAAFFVALDEDSHCYNPDDEASLSLYGKSLLHGNCYNRWFDKSFTLISCKNGQLGLNTEHSWADAPIIGHLWEFVLATDTFHLGYTETGHCVGEPNTKLPPPQRMQWDIPEQCQTAIENSYQVAKALADDVELYCFQFLPFGKGLIKKCRTSPDAFVQIALQLAHFRDKGKFCLTYEASMTRMFREGRTETVRSCTSESTAFVRAMMTGSHKKQDLQDLFRKASEKHQNMYRLAMTGAGIDRHLFCLYIVSKYLGVRSPFLDEVLSEPWSLSTSQIPQFQICMFDPKQYPNHLGAGGGFGPVADHGYGVSYMIAGENTMFFHVSSKLSSSETNALRFGNHIRQALLDIADLFKISKTDS
For B2, in data set [4], the Km came out at 500 µM.

By Ki is commonly meant a dissociation constant, usually derived from enzyme kinetics or from competition with a known ligand. Low readings indicate a stronger hold on the target, high ones a looser hold on the target. In general, Km refers to the substrate concentration at which the rate is half of its maximum.
